Measured values taken from patent US11053213B2, “Pharmaceutical compounds” (ALMAC DISCOVERY LIMITED, priority 2016, dated 2021).
pIC50: −log10 of the molar value.

Target: USP19 (Homo sapiens (Human), UniProt O94966)
Assay: USP19 activity assay (fluorescence polarisation, Ubiquitin-Lys-TAMRA substrate)
Assay type: biochemical
Details: full-length USP19 2.5 nM, 30 min pre-incubation, Ub substrate 500 nM; average of at least two duplicate experiments

USP19, sequence (O94966 whole entry): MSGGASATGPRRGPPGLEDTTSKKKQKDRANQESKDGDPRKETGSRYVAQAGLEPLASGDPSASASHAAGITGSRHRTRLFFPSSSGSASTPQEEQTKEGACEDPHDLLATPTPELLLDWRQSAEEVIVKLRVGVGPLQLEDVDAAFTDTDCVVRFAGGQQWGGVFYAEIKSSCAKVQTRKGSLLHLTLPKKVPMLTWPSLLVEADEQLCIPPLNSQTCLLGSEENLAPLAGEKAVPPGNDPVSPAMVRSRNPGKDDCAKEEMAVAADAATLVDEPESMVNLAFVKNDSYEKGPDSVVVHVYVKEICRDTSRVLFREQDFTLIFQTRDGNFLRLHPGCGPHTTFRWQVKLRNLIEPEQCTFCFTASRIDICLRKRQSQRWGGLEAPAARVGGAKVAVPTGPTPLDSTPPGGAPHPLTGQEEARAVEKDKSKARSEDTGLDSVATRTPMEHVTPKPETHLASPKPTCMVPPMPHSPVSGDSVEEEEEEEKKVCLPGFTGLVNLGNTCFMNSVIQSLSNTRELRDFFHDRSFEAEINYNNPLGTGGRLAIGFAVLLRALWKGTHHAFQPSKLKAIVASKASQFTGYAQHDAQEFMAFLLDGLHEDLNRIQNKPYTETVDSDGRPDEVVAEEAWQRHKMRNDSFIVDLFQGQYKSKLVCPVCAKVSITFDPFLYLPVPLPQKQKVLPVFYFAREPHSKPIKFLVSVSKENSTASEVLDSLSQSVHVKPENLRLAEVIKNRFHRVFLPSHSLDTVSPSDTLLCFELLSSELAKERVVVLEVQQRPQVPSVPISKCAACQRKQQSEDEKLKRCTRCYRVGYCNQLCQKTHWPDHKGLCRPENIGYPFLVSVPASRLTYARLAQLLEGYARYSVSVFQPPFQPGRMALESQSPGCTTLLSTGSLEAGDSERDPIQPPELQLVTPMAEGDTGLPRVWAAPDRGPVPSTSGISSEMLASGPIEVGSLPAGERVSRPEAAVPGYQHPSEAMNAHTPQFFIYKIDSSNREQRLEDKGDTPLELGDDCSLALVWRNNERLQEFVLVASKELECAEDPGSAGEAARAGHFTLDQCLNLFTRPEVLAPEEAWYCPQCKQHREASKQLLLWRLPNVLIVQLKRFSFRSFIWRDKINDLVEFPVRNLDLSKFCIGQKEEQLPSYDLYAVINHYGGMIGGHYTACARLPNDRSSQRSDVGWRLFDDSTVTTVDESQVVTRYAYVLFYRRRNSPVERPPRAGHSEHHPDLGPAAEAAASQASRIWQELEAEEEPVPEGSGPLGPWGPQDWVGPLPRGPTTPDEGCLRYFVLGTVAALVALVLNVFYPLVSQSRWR

Row | SMILES | pIC50
1 | C[C@@H](CC(=O)N1CCC(O)(Cn2cc(C(=O)N(C)C)c(-c3ccccc3)cc2=O)C2(CCCC2)C1)c1ccccc1 (stereo partly drawn) [Example 183, 1-((10-Hydroxy-7-((S)-3-phenylbutanoyl)-7-azaspiro[4.5]decan-10-yl)methyl)-N,N-dimethyl-6-oxo-4-phenyl-1,6-dihydropyridine-3-carboxamide] | 4.30 to 5.30
2 | CN(C)C(=O)c1cn(CC2(O)CCN(C(=O)CCc3ccc(F)cc3)CC23CCCC3)c(=O)cc1-c1ccccc1 (stereo not drawn) [Example 184, 1-((7-(3-(4-Fluorophenyl)propanoyl)-10-hydroxy-7-azaspiro[4.5]decan-10-yl)methyl)-N,N-dimethyl-6-oxo-4-phenyl-1,6-dihydropyridine-3-carboxamide] | 5.30 to 6.30
3 | C[C@H](CC(=O)N1CCC(O)(Cn2cc(C(=O)N(C)C)c(-c3ccccc3)cc2=O)C2(CCCC2)C1)c1ccccc1 (stereo partly drawn) [Example 185, 1-((10-Hydroxy-7-((R)-3-phenylbutanoyl)-7-azaspiro[4.5]decan-10-yl)methyl)-N,N-dimethyl-6-oxo-4-phenyl-1,6-dihydropyridine-3-carboxamide] | 5.30 to 6.30
4 | CN(C)C(=O)c1cn(CC2(O)CCN(C(=O)C3(C)CCCC3)CC23CCCC3)c(=O)cc1-c1ccccc1 (stereo not drawn) [Example 186, 1-((10-Hydroxy-7-(1-methylcyclopentane-1-carbonyl)-7-azaspiro[4.5]decan-10-yl)methyl)-N,N-dimethyl-6-oxo-4-phenyl-1,6-dihydropyridine-3-carboxamide] | 3.60 to 4.30
5 | CN(C)C(=O)c1cn(CC2(O)CCN(C(=O)c3cc[nH]n3)CC23CCCC3)c(=O)cc1-c1ccccc1 (stereo not drawn) [Example 187, 1-((10-Hydroxy-7-(1H-pyrazole-3-carbonyl)-7-azaspiro[4.5]decan-10-yl)methyl)-N,N-dimethyl-6-oxo-4-phenyl-1,6-dihydropyridine-3-carboxamide] | 3.60 to 4.30
6 | CN(C)C(=O)c1cn(CC2(O)CCN(C(=O)c3n[nH]c4ccccc34)CC23CCCC3)c(=O)cc1-c1ccccc1 (stereo not drawn) [Example 188, 1-((10-Hydroxy-7-(1H-indazole-3-carbonyl)-7-azaspiro[4.5]decan-10-yl)methyl)-N,N-dimethyl-6-oxo-4-phenyl-1,6-dihydropyridine-3-carboxamide] | 3.60 to 4.30
7 | CN(C)C(=O)c1cn(CC2(O)CCN(C(=O)c3c[nH]nc3C3CCCCC3)CC23CCCC3)c(=O)cc1-c1ccccc1 (stereo not drawn) [Example 189, 1-((7-(3-Cyclohexyl-1H-pyrazole-4-carbonyl)-10-hydroxy-7-azaspiro[4.5]decan-10-yl)methyl)-N,N-dimethyl-6-oxo-4-phenyl-1,6-dihydropyridine-3-carboxamide] | 5.30 to 6.30
8 | CN(C)C(=O)c1cn(CC2(O)CCN(C(=O)c3c[nH]c4ccccc34)CC23CCCC3)c(=O)cc1-c1ccccc1 (stereo not drawn) [Example 190, 1-((10-Hydroxy-7-(1H-indole-3-carbonyl)-7-azaspiro[4.5]decan-10-yl)methyl)-N,N-dimethyl-6-oxo-4-phenyl-1,6-dihydropyridine-3-carboxamide] | 3.60 to 4.30
9 | CN(C)C(=O)c1cn(CC2(O)CCN(C(=O)C34CC(C3)C4)CC23CCCC3)c(=O)cc1-c1ccccc1 (stereo not drawn) [Example 191, 1-((7-(Bicyclo[1.1.1]pentane-1-carbonyl)-10-hydroxy-7-azaspiro[4.5]decan-10-yl)methyl)-N,N-dimethyl-6-oxo-4-phenyl-1,6-dihydropyridine-3-carboxamide] | 3.60 to 4.30
10 | CN(C)C(=O)c1cn(CC2(O)CCN(C(=O)c3ncoc3-c3ccccc3)CC23CCCC3)c(=O)cc1-c1ccccc1 (stereo not drawn) [Example 192, 1-((10-Hydroxy-7-(5-phenyloxazole-4-carbonyl)-7-azaspiro[4.5]decan-10-yl)methyl)-N,N-dimethyl-6-oxo-4-phenyl-1,6-dihydropyridine-3-carboxamide] | 4.30 to 5.30
11 | CN(C)C(=O)c1cn(CC2(O)CCN(C(=O)c3ncoc3C3CC3)CC23CCCC3)c(=O)cc1-c1ccccc1 (stereo not drawn) [Example 193, 1-((7-(5-Cyclopropyloxazole-4-carbonyl)-10-hydroxy-7-azaspiro[4.5]decan-10-yl)methyl)-N,N-dimethyl-6-oxo-4-phenyl-1,6-dihydropyridine-3-carboxamide] | 4.30 to 5.30
12 | CN(C)C(=O)c1cn(CC2(O)CCN(C(=O)COC3CCCCC3)CC23CCCC3)c(=O)cc1-c1ccccc1 (stereo not drawn) [Example 194, 1-((7-(2-(Cyclohexyloxy)acetyl)-10-hydroxy-7-azaspiro[4.5]decan-10-yl)methyl)-N,N-dimethyl-6-oxo-4-phenyl-1,6-dihydropyridine-3-carboxamide] | 4.30 to 5.30
13 | CN(C)C(=O)c1cn(CC2(O)CCN(C(=O)C3CC34CC4)CC23CCCC3)c(=O)cc1-c1ccccc1 (stereo not drawn) [Example 195, 1-((10-Hydroxy-7-(spiro[2.2]pentane-1-carbonyl)-7-azaspiro[4.5]decan-10-yl)methyl)-N,N-dimethyl-6-oxo-4-phenyl-1,6-dihydropyridine-3-carboxamide] | 4.30 to 5.30
14 | CN(C)C(=O)c1cn(CC2(O)CCN(C(=O)C3CCC(C(F)(F)F)C3)CC23CCCC3)c(=O)cc1-c1ccccc1 (stereo not drawn) [Example 196, 1-((10-Hydroxy-7-(3-(trifluoromethyl)cyclopentane-1-carbonyl)-7-azaspiro[4.5]decan-10-yl)methyl)-N,N-dimethyl-6-oxo-4-phenyl-1,6-dihydropyridine-3-carboxamide] | 5.30 to 6.30
15 | CC(C)CC(C)C(=O)N1CCC(O)(Cn2cc(C(=O)N(C)C)c(-c3ccccc3)cc2=O)C2(CCCC2)C1 (stereo not drawn) [Example 197] | > 6.30
16 | CN(C)C(=O)c1cn(CC2(O)CCN(C(=O)c3cccn3Cc3ccccc3)CC23CCCC3)c(=O)cc1-c1ccccc1 (stereo not drawn) [Example 198, 1-((7-(1-Benzyl-1H-pyrrole-2-carbonyl)-10-hydroxy-7-azaspiro[4.5]decan-10-yl)methyl)-N,N-dimethyl-6-oxo-4-phenyl-1,6-dihydropyridine-3-carboxamide] | 4.30 to 5.30
17 | CC(OC1CCCCC1)C(=O)N1CCC(O)(Cn2cc(C(=O)N(C)C)c(-c3ccccc3)cc2=O)C2(CCCC2)C1 (stereo not drawn) [Example 199, 1-((7-(2-(Cyclohexyloxy)propanoyl)-10-hydroxy-7-azaspiro[4.5]decan-10-yl)methyl)-N,N-dimethyl-6-oxo-4-phenyl-1,6-dihydropyridine-3-carboxamide] | 4.30 to 5.30
18 | CC1(C)CN(C(=O)[C@H](CO)CC2CCC2)CCC1(O)Cn1cnc(-c2ccccc2F)cc1=O (stereo partly drawn) [Example 200, 3-((1-((S)-3-Cyclobutyl-2-(hydroxymethyl)propanoyl)-4-hydroxy-3,3-dimethylpiperidin-4-yl)methyl)-6-(2-fluorophenyl)pyrimidin-4(3H)-one] | 5.30 to 6.30
19 | CN(C)C(=O)c1cn(CC2(O)CCN(C(=O)COC3CCC3)CC23CCCC3)c(=O)cc1-c1ccccc1 (stereo not drawn) [Example 201, 1-((7-(2-Cyclobutoxyacetyl)-10-hydroxy-7-azaspiro[4.5]decan-10-yl)methyl)-N,N-dimethyl-6-oxo-4-phenyl-1,6-dihydropyridine-3-carboxamide] | 4.30 to 5.30
20 | CN(C)C(=O)c1cn(CC2(O)CCN(C(=O)C3CCC(F)(F)C3)CC23CCCC3)c(=O)cc1-c1ccccc1 (stereo not drawn) [Example 202, 1-((7-(3,3-Difluorocyclopentane-1-carbonyl)-10-hydroxy-7-azaspiro[4.5]decan-10-yl)methyl)-N,N-dimethyl-6-oxo-4-phenyl-1,6-dihydropyridine-3-carboxamide] | 3.60 to 4.30
21 | CN(C)C(=O)c1cn(CC2(O)CCN(C(=O)C(O)Cc3ccccc3)CC23CCCC3)c(=O)cc1-c1ccccc1 (stereo not drawn) [Example 203, 1-((10-Hydroxy-7-(2-hydroxy-3-phenylpropanoyl)-7-azaspiro[4.5]decan-10-yl)methyl)-N,N-dimethyl-6-oxo-4-phenyl-1,6-dihydropyridine-3-carboxamide] | 5.30 to 6.30
22 | C[C@H](CC(F)(F)F)C(=O)N1CC[C@@](O)(Cn2cc(C(=O)N(C)C)c(-c3ccccc3)cc2=O)C(C)(C)C1 [Example 204, 1-(((S)-4-Hydroxy-3,3-dimethyl-1-((R)-4,4,4-trifluoro-2-methylbutanoyl)piperidin-4-yl)methyl)-N,N-dimethyl-6-oxo-4-phenyl-1,6-dihydropyridine-3-carboxamide] | 5.30 to 6.30
23 | C[C@H](CC1CCCCC1)C(=O)N1CC[C@@](O)(Cn2cc(C(=O)N(C)C)c(-c3ccccc3F)cc2=O)C(C)(C)C1 [Example 205, 1-(((S)-1-((R)-3-Cyclohexyl-2-methylpropanoyl)-4-hydroxy-3,3-dimethylpiperidin-4-yl)methyl)-4-(2-fluorophenyl)-N,N-dimethyl-6-oxo-1,6-dihydropyridine-3-carboxamide] | > 6.30
24 | C[C@H](CC1CCCCC1)C(=O)N1CC[C@@](O)(Cn2cc(C(=O)N3CCNCC3)c(-c3ccccc3F)cc2=O)C(C)(C)C1 [Example 206, 1-(((S)-1-((R)-3-Cyclohexyl-2-methylpropanoyl)-4-hydroxy-3,3-dimethylpiperidin-4-yl)methyl)-4-(2-fluorophenyl)-5-(piperazine-1-carbonyl)pyridin-2(1H)-one] | > 6.30
25 | CN(C)C(=O)c1cn(C[C@]2(O)CCN(C(=O)C(CC(F)(F)F)CC(F)(F)F)CC2(C)C)c(=O)cc1-c1ccccc1 [Example 207, (S)-1-((4-Hydroxy-3,3-dimethyl-1-(4,4,4-trifluoro-2-(2,2,2-trifluoroethyl)butanoyl)piperidin-4-yl)methyl)-N,N-dimethyl-6-oxo-4-phenyl-1,6-dihydropyridine-3-carboxamide] | 4.30 to 5.30
26 | C[C@H](CC1CCCCC1)C(=O)N1CC[C@@](O)(Cn2cc(C(=O)N3CCNC[C@H]3CO)c(-c3ccccc3)cc2=O)C(C)(C)C1 [Example 208, 1-(((S)-1-((R)-3-Cyclohexyl-2-methylpropanoyl)-4-hydroxy-3,3-dimethylpiperidin-4-yl)methyl)-5-((S)-2-(hydroxymethyl)piperazine-1-carbonyl)-4-phenylpyridin-2(1H)-one] | > 6.30
27 | C[C@H](CC1CCCCC1)C(=O)N1CC[C@](O)(Cn2cc(C(=O)N(C)C)c(-c3ccccc3)cc2=O)C2(CCCC2)C1 [Example 209, 1-(((R)-7-((R)-3-Cyclohexyl-2-methylpropanoyl)-10-hydroxy-7-azaspiro[4.5]decan-10-yl)methyl)-N,N-dimethyl-6-oxo-4-phenyl-1,6-dihydropyridine-3-carboxamide] | 4.30 to 5.30
